Test results: patent US6878722B2, “Substituted cycloalkyl P1′ hepatitis C virus inhibitors” (Bristol-Myers Squibb Company, priority 2002, dated 2005)
Where two headings read alike, the source gives them in different places.

Legend:
[1] = target: T1, HCV NS3/4A protease complex (BMS strain, genotype 1a) (Hepatitis C virus genotype 1a, UniProt P27958, C1454S); assay: Recombinant HCV NS3/4A protease complex FRET peptide assay, BMS strain; type: biochemical; conditions: NS3/4A BMS Strain
T1 construct: DNA encoding the recombinant HCV NS3/4A protease complex (amino acids 1027 to 1711) for these strains; inferred from the pET21b vector and Ni-NTA purification; made in house; host or cells: Escherichia coli BL21 (DE3), pET21b
Source text: The purpose of this in vitro assay was to measure the inhibition of HCV NS3 protease complexes, derived from the BMS, H77C or J416S strains, as described below, by compounds of the present invention.
Serum from an HCV-infected patient was obtained from Dr. T. Wright, San Francisco Hospital. An engineered full-length cDNA (compliment deoxyribonucleic acid) template of the HCV genome (BMS strain) was constructed from DNA fragments obtained by reverse transcription-PCR (RT-PCR) of serum RNA (ribonucleic acid) and using primers selected on the basis of homology between other genotype 1a strains. […] The infectious clones, H77C (1a genotype) and J4L6S (1b genotype) were obtained from R. Purcell (NIH) and the sequences are published in Genbank (AAB67036, see Yanagi,M., Purcell,R. H., Emerson,S. U. and Bukh,J. Proc. Natl. Acad. Sci. U.S.A. 94(16),8738-8743 (1997); AF054247, see Yanagi,M., St Claire,M., Shapiro,M., Emerson,S. U., Purcell,R. H. and Bukh,J, Virology 244 (1), 161-172. (1998)).
The BMS, H77C and J4L6S strains were used for production of recombinant NS3/4A protease complexes. DNA encoding the recombinant HCV NS3/4A protease complex (amino acids 1027 to 1711) for these strains were manipulated as described by P. Gallinari et al. (see Gallinari P, Paolini C, Brennan D, Nardi C, Steinkuhler C, De Francesco R. Biochemistry. 38(17):5620-32, (1999)). Briefly, a three-lysine solubilizing tail was added at the 3′-end of the NS4A coding region. The cysteine in the P1 position of the NS4A-NS4B cleavage site (amino acid 1711) was changed to a glycine to avoid the proteolytic cleavage of the lysine tag. Furthermore, a cysteine to serine mutation was introduced by PCR at amino acid position 1454 to prevent the autolytic cleavage in the NS3 helicase domain. The variant DNA fragment was cloned in the pET21b bacterial expression vector (Novagen) and the NS3/4A complex was expressed in Escherichia. coli strain BL21 (DE3) (Invitrogen) following the protocol described by P. Gallinari et al. (see Gallinari P, Brennan D, Nardi C, Brunetti M, Tomei L, Steinkuhler C, De Francesco R., J. Virol. 72(8):6758-69 (1998)) with modifications. Briefly, NS3/4A expression was induced with 0.5 mM Isopropyl β-D-1-thiogalactopyranoside (IPTG) for 22 hr at 20° C. […] The cells were resuspended in lysis buffer (10 mL/g) consisting of 25 mM N-(2-Hydroxyethyl)Piperazine-N′-(2-Ethane Sulfonic acid) (HEPES), pH 7.5, 20% glycerol, 500 mM Sodium Chloride (NaCl), 0.5% Triton-X100, 1 ug/ml lysozyme, 5 mM Magnesium Chloride (MgCl2), 1 ug/ml DnaseI, 5 mM β-Mercaptoethanol (βME), Protease inhibitor—Ethylenediamine Tetraacetic acid (EDTA) free (Roche), homogenized and incubated for 20 mins at 4° C. The homogenate was sonicated and clarified by ultra-centrifugation at 235000 g for 1 hr at 4° C. Imidazole was added to the supernatant to a final concentration of 15 mM and the pH adjusted to 8.0. The crude protein extract was loaded on a Nickel-Nitrilotriacetic acid (Ni-NTA) column pre-equilibrated with buffer B (25 mM HEPES, pH 8.0, 20% glycerol, 500 mM NaCl, 0.5% Triton-X100, 15 mM imidazole, 5 mM βME). The sample was loaded at a flow rate of 1 mL/min. The column was washed with 15 column volumes of buffer C (same as buffer B except with 0.2% Triton-X100). The protein was eluted with 5 column volumes of buffer D (same as buffer C except with 200 mM Imidazole).
NS3/4A protease complex-containing fractions were pooled and loaded on a desalting column Superdex-S200 pre-equilibrated with buffer D (25 mM HEPES, pH7.5, 20% glycerol, 300 mM NaCl, 0.2% Triton-X100, 10 mM βME).

[2] = system: HCV replicon in Huh7 cells; assay: HCV replicon cell-based assay (FRET); conditions: HCV replicon, read-out: EC50 range
Source text: An HCV replicon whole cell system was established as described by Lohmann V, Korner F, Koch J, Herian U, Theilmann L, Bartenschlager R., Science 285(5424):110-3 (1999). This system enabled us to evaluate the effects of our HCV Protease compounds on HCV RNA replication. Briefly, using the HCV strain 1B sequence described in the Lohmann paper (Assession number: AJ238799), an HCV cDNA was generated encoding the 5′ internal ribosome entry site (IRES), the neomycin resistance gene, the EMCV (encephalomyocarditis viurs)-IRES and the HCV nonstructural proteins, NS3-NS5B, and 3′ non-translated region (NTR). In vitro transcripts of the cDNA were transfected into the human hepatoma cell line, Huh7. […] Resulting cell lines were characterized for positive and negative strand RNA production and protein production over time.
Huh7 cells, constitutively expressing the HCV replicon, were grown in Dulbecco's Modified Eagle Media (DMEM) containing 10% Fetal calf serum (FCS) and 1 mg/ml G418 (Gibco-BRL). Cells were seeded the night before (1.5×10^4 cells/well) in 96-well tissue-culture sterile plates. Compound and no compound controls were prepared in DMEM containing 4% FCS, 1:100 Penicillin/Streptomysin, 1:100 L-glutamine and 5% DMSO in the dilution plate (0.5% DMSO final concentration in the assay). Compound/DMSO mixes were added to the cells and incubated for 4 days at 37° C. After 4 days, plates were rinsed thoroughly with Phosphate-Buffered Saline (PBS) (3 times 150 μl). The cells were lysed with 25 μl of a lysis assay reagent containing the FRET peptide (RET S1, as described for the in vitro enzyme assay). The lysis assay reagent was made from 5× cell Luciferase cell culture lysis reagent(Promega #E153A) diluted to 1× with distilled water, NaCl added to 150 mM final, the FRET peptide diluted to 10 μM final from a 2 mM stock in 100% DMSO. The plate was then placed into the Cytofluor 4000 instrument which had been set to 340 nm excitation/490 emission, automatic mode for 21 cycles and the plate read in a kinetic mode. EC50 determinations were carried out as described for the IC50 determinations.

T1 sequence (P27958 1658-1714, looked up, stated change not applied): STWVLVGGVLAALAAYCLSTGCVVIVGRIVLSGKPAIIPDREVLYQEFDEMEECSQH
T1 sequence (P27958 1027-1657, looked up, stated change not applied): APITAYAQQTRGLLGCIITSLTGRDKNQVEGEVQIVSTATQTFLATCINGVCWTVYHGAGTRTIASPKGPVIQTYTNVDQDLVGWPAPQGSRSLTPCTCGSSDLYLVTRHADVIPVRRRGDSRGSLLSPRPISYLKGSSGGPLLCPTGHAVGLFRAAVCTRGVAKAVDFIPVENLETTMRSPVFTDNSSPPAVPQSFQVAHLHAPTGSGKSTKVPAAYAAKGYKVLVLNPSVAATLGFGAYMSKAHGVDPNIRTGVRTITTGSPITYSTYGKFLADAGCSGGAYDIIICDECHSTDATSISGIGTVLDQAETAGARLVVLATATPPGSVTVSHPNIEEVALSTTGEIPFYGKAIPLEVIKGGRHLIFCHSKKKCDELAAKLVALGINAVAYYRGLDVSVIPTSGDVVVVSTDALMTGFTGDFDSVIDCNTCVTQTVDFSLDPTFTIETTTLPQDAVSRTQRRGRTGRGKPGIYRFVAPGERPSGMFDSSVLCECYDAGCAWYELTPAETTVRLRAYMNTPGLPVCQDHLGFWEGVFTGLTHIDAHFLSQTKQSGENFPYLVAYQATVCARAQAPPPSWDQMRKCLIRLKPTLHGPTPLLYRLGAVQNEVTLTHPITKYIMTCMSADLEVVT

Structure (SMILES) | IC50 ([1]; IC50 range) [nM] | EC50 ([2]; Hepatitis C virus, Huh-7) [nM] | IC50 ([1]; read-out: IC50 range) [nM] | EC50 [2] [nM]
C=C[C@@H]1C[C@]1(NC(=O)[C@@H]1C[C@@H](Oc2cc(-c3ccccc3)nc3cc(OC)ccc23)CN1C(=O)[C@@H](NC(=O)OC(C)(C)C)C(C)(C)C)C(=O)NS(=O)(=O)C1(CC2CCC2)CC1 [Compound 32, {1-[2-[1-(1-Cyclobutylmethyl-cyclopropanesulfonylaminocarbonyl)-2-vinyl-cyclopropylcarbamoyl]-4-(7-methoxy-2-phenyl-quinolin-4-yloxy)-pyrrolidine-1-carbonyl]-2,2-dimethyl-propyl}-carbamic acid tert-butyl ester] | < 50 | < 50 | – | –
C=C[C@@H]1C[C@]1(NC(=O)[C@@H]1C[C@@H](Oc2cc(-c3ccccc3)nc3cc(OC)ccc23)CN1C(=O)[C@@H](NC(=O)OC(C)(C)C)C(C)(C)C)C(=O)NS(=O)(=O)C1(Cc2ccc(OC)cc2)CC1 [Compound 42, {1-[2-{1-[1-(4-Methoxy-benzyl)-cyclopropanesulfonylaminocarbonyl]-2-vinyl-cyclopropylcarbamoyl}-4-(7-methoxy-2-phenyl-quinolin-4-yloxy)-pyrrolidine-1-carbonyl]-2,2-dimethyl-propyl}-carbamic acid tert-butyl ester] | 50 to 500 | 50 to 500 | – | –
C=C[C@@H]1C[C@]1(NC(=O)[C@@H]1C[C@@H](Oc2cc(-c3ccccc3)nc3cc(OC)ccc23)CN1C(=O)[C@@H](NC(=O)OC(C)(C)C)C(C)(C)C)C(=O)NS(=O)(=O)C1(Cc2cccnc2)CC1 [Compound 49, (1-{4-(7-Methoxy-2-phenyl-quinolin-4-yloxy)-2-[1-(1-pyridin-3-ylmethyl-cyclopropanesulfonylaminocarbonyl)-2-vinyl-cyclopropylcarbamoyl]-pyrrolidine-1-carbonyl}-2,2-dimethyl-propyl)-carbamic acid tert-butyl] | < 50 | 50 to 500 | – | –
C=CCCCCCCCC1(S(=O)(=O)NC(=O)C2(NC(=O)C3CC(Oc4cc(-c5ccccc5)nc5cc(OC)ccc45)CN3C(=O)C(NC(=O)OC(C)(C)C)C(C)(C)C)CC2C=C)CC1 (stereo not drawn) [Compound 34, (1-{4-(7-Methoxy-2-phenyl-quinolin-4-yloxy)-2-[1-(1-non-8-enyl-cyclopropanesulfonylaminocarbonyl)-2-vinyl-cyclopropylcarbamoyl]-1-pyrrolidine-1-carbonyl}-2,2-dimethyl-propyl)-carbamic acid tert-butyl ester] | – | – | < 50 | < 50
C=C[C@@H]1C[C@]1(NC(=O)[C@@H]1C[C@@H](Oc2cc(-c3ccccc3)nc3cc(OC)ccc23)CN1C(=O)[C@@H](NC(=O)CC1CCOCC1)C(C)(C)C)C(=O)NS(=O)(=O)C1(Cc2ccccc2)CC1 [Compound 59, 1-[3,3-Dimethyl-2-(2-tetrahydro-pyran-4-yl-acetylamino)-butyryl]-4-(7-methoxy-2-phenyl-quinolin-4-yloxy)-pyrrolidine-2-carboxylic acid [1-(1-benzyl-cyclopropanesulfonylaminocarbonyl)-2-vinyl-cyclopropyl]-amide] | < 50 | 50 to 500 | – | –
C=C[C@@H]1C[C@]1(NC(=O)[C@@H]1C[C@@H](Oc2cc(-c3ccccc3)nc3cc(OC)ccc23)CN1C(=O)[C@@H](NC(=O)OC(C)(C)C)C(C)(C)C)C(=O)NS(=O)(=O)C1(C=C(C)C)CC1 [Compound 44, [1-(4-(7-Methoxy-2-phenyl-quinolin-4-yloxy)-2-{1-[1-(2-methyl-propenyl)-cyclopropanesulfonylaminocarbonyl]-2-vinyl-cyclopropylcarbamoyl}-pyrrolidine-1-carbonyl)-2,2-dimethyl-propyl]-carbamic acid tert-butyl ester] | < 50 | 50 to 500 | – | –
